Patent publication US8058292B2, “Therapeutic agents useful for treating pain” (Purdue Pharma L.P., priority 2003, dated 2011)

Target: T1, rat mGluR5 (Rattus norvegicus, UniProt P31424)
T1 construct: expressed in transfected cells; host or cells: CHO cells (CHO-rat mGluR5 line, kept under Geneticin selection)
Assay: Calcium mobilization flux (FLIPR) in CHO-rat mGluR5 cells in the presence of glutamate
Format: cell-based
Settings: 10 uM glutamate, Fluo 4 calcium flux, mean of 4 experiments
Experimental: 40,000 CHO-rat mGluR5 cells/well were plated into 96 well plate (Costar 3409, Black, clear bottom, 96 well, tissue culture treated) for an overnight incubation in Dulbecco's Modified Eagle's Medium (DMEM, pH 7.4) and supplemented with glutamine, 10% FBS, 1% Pen/Strep, and 500 ug/mL Geneticin. CHO-rat mGluR5 cells were washed and treated with Optimem medium and were incubated for 1-4 hours prior to loading cells. […]
The plates containing the CHO-rat mGluR5 cells were transferred to a FLIPR for the assessment of calcium mobilization flux in the presence of glutamate and in the presence or absence of test compounds. After monitoring fluorescence for 15 seconds to establish a baseline, DMSO solutions containing various concentrations of the test compound diluted in loading buffer (0.05 mL of 4× dilutions for the competition curves) were added to the cell plate and fluorescence was monitored for 2 minutes. […] Plate fluorescence was then monitored for an additional 60 seconds after agonist addition. […] In each experiment, fluorescence was monitored as a function of time and the data analyzed using Microsoft Excel and GraphPad Prism. […] In each experiment, each data point was determined at least two times.

T1 sequence (P31424 21-1203): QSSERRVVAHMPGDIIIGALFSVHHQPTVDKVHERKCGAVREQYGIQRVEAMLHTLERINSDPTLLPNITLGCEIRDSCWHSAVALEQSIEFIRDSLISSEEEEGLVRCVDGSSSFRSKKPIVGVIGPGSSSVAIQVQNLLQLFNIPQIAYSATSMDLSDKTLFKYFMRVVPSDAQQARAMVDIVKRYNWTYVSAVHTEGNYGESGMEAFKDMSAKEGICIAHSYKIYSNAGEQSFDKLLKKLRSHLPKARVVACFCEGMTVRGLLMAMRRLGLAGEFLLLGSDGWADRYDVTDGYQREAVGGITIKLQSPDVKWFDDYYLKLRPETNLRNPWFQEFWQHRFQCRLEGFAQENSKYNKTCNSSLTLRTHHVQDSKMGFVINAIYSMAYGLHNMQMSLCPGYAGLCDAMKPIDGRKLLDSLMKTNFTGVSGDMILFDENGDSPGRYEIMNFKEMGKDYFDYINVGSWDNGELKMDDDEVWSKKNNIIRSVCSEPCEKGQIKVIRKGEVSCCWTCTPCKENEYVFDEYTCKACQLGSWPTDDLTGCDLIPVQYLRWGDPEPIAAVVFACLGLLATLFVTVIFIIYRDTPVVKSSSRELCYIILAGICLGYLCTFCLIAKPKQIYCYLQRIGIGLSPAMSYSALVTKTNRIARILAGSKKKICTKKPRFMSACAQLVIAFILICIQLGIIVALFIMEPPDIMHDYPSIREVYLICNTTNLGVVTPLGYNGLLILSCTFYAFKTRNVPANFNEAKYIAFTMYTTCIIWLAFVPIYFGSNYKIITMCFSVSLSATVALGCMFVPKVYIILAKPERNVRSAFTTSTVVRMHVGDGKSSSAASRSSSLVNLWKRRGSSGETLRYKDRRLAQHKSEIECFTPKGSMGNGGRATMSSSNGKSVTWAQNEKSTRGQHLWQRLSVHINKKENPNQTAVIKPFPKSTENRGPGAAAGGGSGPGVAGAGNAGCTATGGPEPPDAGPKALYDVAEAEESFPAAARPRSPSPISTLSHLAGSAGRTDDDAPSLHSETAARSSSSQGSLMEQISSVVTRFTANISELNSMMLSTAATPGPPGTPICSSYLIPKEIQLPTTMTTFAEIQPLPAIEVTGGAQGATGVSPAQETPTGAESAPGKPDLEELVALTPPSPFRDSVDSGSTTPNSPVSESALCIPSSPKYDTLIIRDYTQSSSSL

Structure (SMILES): O=C(C#Cc1ccccc1)N1CC(Nc2ncccc2[N+](=O)[O-])C1 [AAB(Ib)]
- IC50: 110 ± 17.9 nM
